The Kinase Knowledgebase extract (Sharma et al. 2016)

Target: PIK3CA (human) (UniProt P42336)
Test: Assessment of PIK3CA Kinase Activity

Chain of PIK3CA (human) (P42336 whole entry, looked up): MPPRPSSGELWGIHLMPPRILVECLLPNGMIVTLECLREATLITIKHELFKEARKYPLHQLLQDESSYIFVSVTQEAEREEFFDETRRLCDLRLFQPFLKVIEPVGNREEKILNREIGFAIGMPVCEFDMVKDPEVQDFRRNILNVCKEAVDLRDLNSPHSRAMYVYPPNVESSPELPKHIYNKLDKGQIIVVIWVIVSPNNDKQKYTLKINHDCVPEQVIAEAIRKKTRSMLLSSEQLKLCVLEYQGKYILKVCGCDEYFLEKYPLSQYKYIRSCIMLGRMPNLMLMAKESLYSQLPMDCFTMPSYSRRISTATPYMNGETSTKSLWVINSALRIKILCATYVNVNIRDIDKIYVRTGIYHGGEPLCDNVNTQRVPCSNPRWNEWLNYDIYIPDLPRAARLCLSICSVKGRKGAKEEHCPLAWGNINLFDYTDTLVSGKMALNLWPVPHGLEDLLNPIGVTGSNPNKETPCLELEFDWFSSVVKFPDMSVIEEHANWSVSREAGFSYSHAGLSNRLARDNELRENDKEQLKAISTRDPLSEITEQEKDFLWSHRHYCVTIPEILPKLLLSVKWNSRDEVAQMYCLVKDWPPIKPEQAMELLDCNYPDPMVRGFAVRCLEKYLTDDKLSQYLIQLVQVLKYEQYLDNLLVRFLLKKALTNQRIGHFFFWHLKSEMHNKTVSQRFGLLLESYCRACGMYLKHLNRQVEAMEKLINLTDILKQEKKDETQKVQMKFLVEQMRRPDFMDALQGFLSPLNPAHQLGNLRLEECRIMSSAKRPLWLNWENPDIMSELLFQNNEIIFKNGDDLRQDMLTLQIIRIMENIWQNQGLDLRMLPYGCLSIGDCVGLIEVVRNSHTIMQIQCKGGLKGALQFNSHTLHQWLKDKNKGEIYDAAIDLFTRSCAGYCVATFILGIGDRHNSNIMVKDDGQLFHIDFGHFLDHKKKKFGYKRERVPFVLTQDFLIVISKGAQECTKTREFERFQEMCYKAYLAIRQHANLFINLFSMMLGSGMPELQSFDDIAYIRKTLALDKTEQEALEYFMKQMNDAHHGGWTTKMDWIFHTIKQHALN

Row | IC50 [nM] | SMILES
1 | < 1000 | CC(C)C(=O)N1CCN(C(=O)c2nc3c(s2)CCOc2cc(-c4cn[nH]c4)ccc2-3)CC1
2 | < 1000 | CC(C)n1ncnc1-c1nc2c(s1)CCOc1ccc(-c3cccn(C(C)C)c3=O)cc1-2
3 | < 1000 | CC(C)n1ccnc1-c1nc2c(s1)CCOc1cc(-c3cnn(CCO)c3)ccc1-2
4 | < 1000 | CC(C)n1nc(N)nc1-c1nc2c(s1)CCOc1ccc(F)cc1-2
